{
  "source": "patent US20210353767A1",
  "about": "“COMPOSITIONS AND METHODS FOR DRUG DELIVERY” (NORTH CAROLINA STATE UNIVERSITY, priority 2018, published 2021)",
  "key": {"[1]": {"experiment": "Intradermal tetrazine-sNHS depot, IVIS imaging of TCO-cy5 capture", "type": "in vivo, mice", "conditions": "for Average Radiant Efficiency: average of 4 mice; for Total Radiant Efficiency Measured within Regions of Interest (ROI): before-injection value subtracted, individual mouse", "protocol": "50 μL of 0.05M methyl tetrazine-sNHS ester was dissolved in sterile PBS, and injected intradermally into the dorsal flanks of mice CD1 Charles river mice. The first four images in FIG. 8 are pictures of the four mice treated with the “Click-Target” (tetrazine-sNHS) and the four control mice injected with PBS. The last 4 images in FIG. 8 show the fluorescence observed 24 hours after injection of the “Click Prodrug” (TCO-cy5). The IVIS was adjusted for this cy5 fluorophore. […] This experiment was also performed at 1 week with similar results\nThe total increase in fluorescence after the TCO-cy5 injection (at 1 day) over the intradermal injection ROI's (total radiant efficiency measurement) subtracting the before tco-cy5 image injection value are included below.\nThe total increase in fluorescence after the TCO-cy5 injection (at 1 week) over the intradermal injection ROI's (total radiant efficiency measurement) subtracting the before tco-cy5 image injection value are included below."}, "[2]": {"test_system": "KPC 4662 pancreatic tumor", "conditions": "average of 4 mice", "protocol": "Allograft Pancreatic Tumor. KPC 4662 pancreatic tumor cells (5e5) were injected in a 1:1 ratio with PBS:Matrigel(Matrigel Matrix 354234, lot 7205011) into the subcutaneous dorsal flanks of CD57B16 mice.\nIVIS imaging (Camera #11219, DW434) was performed right before 100 ul of 50 mg/ml DBCO-cy7 retro orbital injections and imaged 24 hours afterwards when most of the unbound DBCO-cy was cleared from systemic circulation. For the refill dose experiments 9-week-old albino c57b16's from Envigo were used. For all other tumor refills, 9-week-old regular c57s from Envigo were used."}, "[3]": {"conditions": "CD1 mice, one month after intradermal injection of 50 μL", "quoted_text": "H&E slides of mouse skin and tissues from 8 mice were analyzed to determine local or distal effects of an injected depot material. All tissues were evaluated by light microscopy and were graded as: “-”=no changes observed in this tissue for any mouse; “0”=a particular change not present; “1”=change is present at slight/minimal severity; “2”=mild severity, “3”=moderate severity; “4” marked severity; “5”=severe. A grade of 1 represents the minimal detectable change and a 5 represents a change judged to be essentially as severe as possible."}, "[4]": {"test_system": "KPC 4662 tumors", "conditions": "pancreatic tumor after a dose of DBCO-cy7", "quoted_text": "8 mice were similarly injected with KPC 4662 tumors and allowed to grow over a week until injection of sNHS(N=4) or PBS(N=4). Injection and imaging was performed as described above on the IVIS before and 24 hours after DBCO-cy7 IV injection. Tumors were then explanted imaged to compare to a linear regression alginate gels ROI's that contained the same dose injected IV to obtain a percentage of cy7 captured at the tumor site.\nThe study employed three tumors injected with a “Click Target” and one control."}, "[5]": {"experiment": "Brain refills: capture of i.v. DBCO-Cy7 at intracranial azide-sNHS depot", "type": "in vivo", "conditions": "azide-sNHS vs control mice, 24 hours after i.v. administration", "protocol": "Representative images of azide-sNHS and control mice after 24 hours after i.v. administration of DBCO-Cy7. The brain was removed and imaged alone.\nQuantitation of intracranial ROI radiant efficiency was measured 24 hours after i.v. DBCO-Cy7 administration. Samples show mean+/−SEM. *=p<0.05, **=p<0.01 by Student's T-test.\nBrain Refills. For anesthesia, 1-5% isoflurane was administered before procedures as well as continuously through the stereotaxic setup, and 0.5% lidocaine HCL administered subcutaneous under the incision site prior to surgery. 10-week-old CD1 mice were mounted on a kopf stereotaxic head stage using ear bars and a 5 μl Hamilton syringe placed in needle fixture. For surgery, the area to be incised on the head was shaved and washed with 70% alcohol. An incision with a #10 blade was made from posterior to anterior (start of skull to between eyes) and skin pulled away from incision using sterile Q-tips to expose the skull. The syringe needle was adjusted so the tip was at Bregma, position of the stereotaxic device recorded, and then moved to the desired calculated position where a marking will be made with a surgical marker. The experimental coordinates were −2.5M/L, −1A/P, −3D/V. A small hand drill was then used to make a 1-2 mm size hole in the skull for the injection needle. […] Once complete, the mouse skin was joined by VetBond skin glue and monitored post-surgery. […]"}},
  "note": "“And” between values parts separate entries of the source, which are not always exact repeats. Equal entries are not always repeated. Where two headings read alike, the source gives them in different places.",
  "data": [
    {"compound": "methyl tetrazine-sNHS ester", "values": [
      {"measurement": "Average Radiant Efficiency", "setting": "[1]; TCO-cy5 injection at 1 week", "value": "1.25 × 10^9"},
      {"measurement": "Average Radiant Efficiency", "setting": "[1]; TCO-cy5 injection at 1 day", "value": "2.72 × 10^9"},
      {"measurement": "Total Radiant Efficiency Measured within Regions of Interest (ROI)", "setting": "[1]; increase in fluorescence after TCO-cy5 injection at 1 week", "value": "1.12 × 10^9 and 1.57 × 10^9 and 1.31 × 10^9 and 1.01 × 10^9"},
      {"measurement": "Total Radiant Efficiency Measured within Regions of Interest (ROI)", "setting": "[1]; increase in fluorescence after TCO-cy5 injection at 1 day", "value": "3.64 × 10^9 and 2.40 × 10^9 and 1.92 × 10^9 and 2.90 × 10^9"}
    ]},
    {"compound": "[N-]=[N+]=NCCC(=O)ON1C(=O)CC(S(=O)(=O)O)C1=O", "note": "(stereo not shown) [Azide sNHS, 3-Azidopropionic Acid Sulfo-NHS ester]", "values": [
      {"measurement": "Average Radiant Efficiency", "setting": "[2]; 24 hours after first administration of DBCO-cy7", "value": "9.21 × 10^9"},
      {"measurement": "Average Radiant Efficiency", "setting": "[2]; 24 hours after second administration of DBCO-cy7", "value": "7.26 × 10^9"},
      {"measurement": "Average Radiant Efficiency", "setting": "[2]; 24 hours after third administration of DBCO-cy7", "value": "4.12 × 10^9"},
      {"measurement": "histologic changes (H&E) versus PBS group", "setting": "[3]", "value": "no difference between the two groups"},
      {"measurement": "radiance relative to control (ROI measurements)", "setting": "[4]", "value": "four times greater"}
    ]},
    {"compound": "C[N+]1=C(C=CC2=CC(=CC=C3N(CCCCCC(=O)NCCCCCC(=O)N4Cc5ccccc5C#Cc5ccccc54)c4ccccc4C3(C)C)CCC2)C(C)(C)c2ccccc21.F[P-](F)(F)(F)(F)F", "note": "[DBCO-Cy7, Cyanine7 DBCO]", "values": [
      {"measurement": "capture in the brain", "setting": "[5]", "value": "click-specific capture"}
    ]}
  ]
}
